From PMC6018403 (Frontiers in Pharmacology, 2018)
Where two headings read alike, the source gives them in different places.

Assay: Multi-component pharmacokinetic study of GQD, GQD-GC and single herb extracts in rats (plasma, LC/MS/MS)
Format: in vivo, Sprague-Dawley rats
Conditions: for Tmax: read-out: Tmax
Experimental: Male Sprague-Dawley rats (220–250 g) were used for PK study, and the details were described in Supplemental Data. All procedures were in accordance with the National Institutes of Health Guide for the Care and Use of Laboratory Animals.
For PK study of GQD and its component herbs, rats were randomly divided into six groups (n = 10 for each group) before oral administration.
All blood samples were immediately centrifuged at 6,000 rpm (4°C) for 20 min to obtain plasma. The plasma samples were stored at −80°C.
A Finnigan TSQ Quantum triple quadrupole mass spectrometer was connected to a Surveyor HPLC via ESI interface (ThermoFisher). High purity nitrogen was used as the sheath and auxiliary gas; Ultra-high purity argon was used as the collision gas (1.5 mTorr). Q1 and Q3 quadrupoles were set at unit resolution. […] The column temperature was 40°C. The mobile phase consisted of acetonitrile containing 2% (v/v) methanol (A) and water containing 0.1% (v/v) formic acid (B). […] An aliquot of 5 μL was injected for analysis. UV spectra were obtained by scanning from 200 to 400 nm. The mass spectrometer was operated in the (+)-ESI mode. The optimized parameters were as follows: sheath gas (N2), 50 arb; auxiliary gas (N2), 5 arb; spray voltage, 4.0 kV; capillary temperature, 330°C; collision energy, see Table S1. Analytes were detected in the selected reaction monitoring (SRM) mode. Data were processed by Xcalibur 2.0.7 software (ThermoFisher).
LC/MS/MS calibration and quantitation data were processed with Xcalibur 2.0.7 software (ThermoFisher). The maximal plasma concentrations (Cmax) and their time of occurrence (Tmax) were obtained directly from the measured data. Other pharmacokinetic parameters were calculated by non-compartment or compartment models using WinNonlin® software (v6.1, Pharsight). Unless otherwise stated, results were expressed as the mean ± SD. Statistical significance in differences of the means was determined by Student's t–test, with a significance level of P < 0.05.
Herbal materials and extracts.
The four component herbs, Puerariae Lobatae Radix (Ge-Gen, GG), Scutellariae Radix (Huang-Qin, HQ), Coptidis Rhizoma (Huang-Lian, HL), and Glycyrrhizae Radix et Rhizoma Praeparata cum Melle (Gan-Cao, GC) were purchased from Tianheng Pharmacy. GQD was prepared by decocting the four component herbs […]
pre-extraction of Ge-Gen using 200 mL of water for 0.5 h. The decoctions were combined, filtered, and concentrated in vacuum at 50 °C. GQD-GC was prepared using the same procedure, except that Gan-Cao was removed from the formula. Final concentration of the GQD-GC extract was equivalent to 1.0 g of the crude drugs per mL. For single herb extracts, the herbs were decocted in 8-fold volume of water for […]
Final concentrations of the extracts were 1.0 g/mL for Ge-Gen, and 0.5 g/mL for Huang-Qin, Huang-Lian and […]
For pharmacokinetic study, Male Sprague-Dawley rats (220-250 g) were obtained from the Laboratory Animal Center of Peking University Health Science Center. The […]
The rats had free access to tap water and soy-free custom diet (Ke’ao Xieli Co.). All procedures were in accordance with the National Institutes of Health Guide for the Care and Use of Laboratory Animals […]
Experimental details for the PK study
1. Preparation of internal standard solution, calibration standard solutions, and quality control solutions […]
internal standard solution. Reference standard compounds were dissolved in the internal standard solution to prepare individual stock solutions (1.0 mg/mL). These […]
each compound. The standard solution was then serially diluted to obtain calibration […]
Quality control stock solutions were prepared at three concentration levels as high QC (HQC), middle QC (MQC), and low QC (LQC), based on linear ranges of the analytes.
2.1. Sample preparation for pharmacokinetic study
The calibration standard and quality control solutions for pharmacokinetic study were […]

[1] = male, Sprague-Dawley, rat, in vivo, po, 9.45 g/kg
[2] = male, Sprague-Dawley, rat, in vivo, po, 16.5 g/kg
[3] = male, Sprague-Dawley, rat, in vivo, po, 18.9 g/kg
[4] = male, Sprague-Dawley, rat, in vivo, GQD group: rats, oral GQD extract 18.9 g/kg, plasma
[5] = male, Sprague-Dawley, rat, plasma, po, 16.5 g/kg, GQD-GC group (GQD without Gan-Cao): rats, oral 16.5 g/kg, plasma, read-out: AUClast
[6] = male, Sprague-Dawley, rat, plasma, po, 18.9 g/kg, GQD group: rats, oral GQD extract 18.9 g/kg, plasma, read-out: AUClast
[7] = male, Sprague-Dawley, rat, plasma, po, 18.9 g/kg, GQD group: rats, oral GQD 18.9 g/kg (1.5-fold of clinical dosage), plasma, read-out: AUClast
[8] = male, Sprague-Dawley, rat, GQD group: rats, oral GQD extract 18.9 g/kg, plasma, read-out: Cmax
[9] = male, Sprague-Dawley, rat, GQD group: rats, oral GQD extract 18.9 g/kg, plasma, read-out: T1/2 (converted)
[10] = male, Sprague-Dawley, rat, GQD group: rats, oral GQD extract 18.9 g/kg, plasma
[11] = male, Sprague-Dawley, rat, GQD-GC group (GQD without Gan-Cao): rats, oral 16.5 g/kg, plasma, read-out: Cmax
[12] = male, Sprague-Dawley, rat, GQD-GC group (GQD without Gan-Cao): rats, oral 16.5 g/kg, plasma, read-out: T1/2 (converted)
[13] = male, Sprague-Dawley, rat, GQD-GC group (GQD without Gan-Cao): rats, oral 16.5 g/kg, plasma

O=c1c(-c2ccc(O)cc2)coc2cc(O)ccc12 [Compound 3, daidzein]
Cmax [1]: 0.188 ± 0.0104 µg/mL
half-life [1]: 5.12 ± 0.87 h
AUC(0-t) (male, Sprague-Dawley, rat, in vivo, po, 9.45 g/kg, AUClast): 2.64 ± 1.15 µg·h/mL
Cmax [2]: 0.0835 ± 0.00323 µg/mL
half-life [2]: 4.28 ± 1.47 h
AUC(0-t) (male, Sprague-Dawley, rat, in vivo, po, 16.5 g/kg, AUClast): 0.674 ± 0.604 µg·h/mL
Cmax [3]: 0.186 ± 0.0362 µg/mL
half-life [3]: 6.23 ± 1.36 h
AUC(0-t) (male, Sprague-Dawley, rat, in vivo, po, 18.9 g/kg, AUClast): 3.05 ± 0.998 µg·h/mL
Tmax (male, Sprague-Dawley, rat, in vivo, GG (Ge-Gen) group: rats, oral extract 9.45 g/kg, plasma): 8 ± 0.14 h
Tmax [4]: 8 ± 12.8 h
Tmax (male, Sprague-Dawley, rat, in vivo, GQD-GC group (GQD without Gan-Cao): rats, oral 16.5 g/kg, plasma): 0.25 ± 0.32 h

COc1ccc2c(c1O)-c1c(O)c(OC)cc3c1[C@H](C2)[N+](C)(C)CC3 [Compound 19, magnoflorine]
AUC(0-t) (male, Sprague-Dawley, rat, plasma, po, 3.54 g/kg, HL (Huang-Lian) group: rats, oral extract 3.54 g/kg, plasma, read-out: AUClast): 0.556 ± 0.224 µg·h/mL
AUC(0-t) [5]: 0.0473 ± 0.00931 µg·h/mL
AUC(0-t) [6]: 0.198 ± 0.0749 µg·h/mL
AUC(0-t) [7]: > 0.1 µg·h/mL
Cmax [8]: 0.0197 ± 0.00567 µg/mL
half-life [9]: 8.35 ± 1.26 h
Tmax [10]: 4.13 ± 1.21 h
Cmax [11]: 0.00521 ± 0.0012 µg/mL
half-life [12]: 4.54 ± 1.43 h
Tmax [13]: 0.28 ± 0.13 h
Cmax (male, Sprague-Dawley, rat, HL (Huang-Lian) group: rats, oral extract 3.54 g/kg, plasma, read-out: Cmax): 0.0764 ± 0.0234 µg/mL
half-life (male, Sprague-Dawley, rat, HL (Huang-Lian) group: rats, oral extract 3.54 g/kg, plasma, read-out: T1/2 (converted)): 10.2 ± 4.34 h
Tmax (male, Sprague-Dawley, rat, HL (Huang-Lian) group: rats, oral extract 3.54 g/kg, plasma): 4.21 ± 3.47 h

CC1(C)[C@@H](O)CC[C@]2(C)[C@H]3C(=O)C=C4[C@@H]5C[C@@](C)(C(=O)O)CC[C@]5(C)CC[C@@]4(C)[C@]3(C)CC[C@@H]12 [Compound 40, glycyrrhetinic acid]
Cmax (GQD group: rats, oral GQD extract 18.9 g/kg, plasma): 0.37114 ± 0.06669 µg/mL
AUC(0-t) (male, Sprague-Dawley, rat, plasma, po, 2.36 g/kg, GC (Gan-Cao) group: rats, oral extract 2.36 g/kg, plasma, read-out: AUClast): 9.63 ± 0.778 µg·h/mL
AUC(0-t) [6]: 8.48 ± 1.3 µg·h/mL
Cmax (male, Sprague-Dawley, rat, GC (Gan-Cao) group: rats, oral extract 2.36 g/kg, plasma, read-out: Cmax): 0.359 ± 0.0378 µg/mL
half-life (male, Sprague-Dawley, rat, GC (Gan-Cao) group: rats, oral extract 2.36 g/kg, plasma, read-out: T1/2 (converted)): 6.87 ± 2.47 h
Tmax (male, Sprague-Dawley, rat, GC (Gan-Cao) group: rats, oral extract 2.36 g/kg, plasma): 13.4 ± 0.78 h
half-life [9]: 7.96 ± 2.56 h

COc1c(O)c(O[C@@H]2O[C@H](C(=O)O)[C@@H](O)[C@H](O)[C@H]2O)cc2oc(-c3ccccc3)cc(=O)c12 [Compound 38, lateriflorein 7-O-glucuronide]
AUC(0-t) (male, Sprague-Dawley, rat, plasma, po, 3.54 g/kg, HQ (Huang-Qin) group: rats, oral extract 3.54 g/kg, plasma, read-out: AUClast): 1.17 ± 0.342 µg·h/mL
AUC(0-t) [5]: 0.599 ± 0.215 µg·h/mL
AUC(0-t) [6]: 0.7 ± 0.077 µg·h/mL
AUC(0-t) [7]: > 0.7 µg·h/mL
Cmax [8]: 0.0488 ± 0.00388 µg/mL
half-life [9]: 4.33 ± 3.23 h
Tmax [10]: 0.44 ± 3.87 h
Cmax [11]: 0.0594 ± 0.00534 µg/mL
half-life [12]: 2.85 ± 0.54 h
Tmax [13]: 0.34 ± 0.07 h
Cmax (male, Sprague-Dawley, rat, HQ (Huang-Qin) group: rats, oral extract 3.54 g/kg, plasma, read-out: Cmax): 0.213 ± 0.0343 µg/mL
half-life (male, Sprague-Dawley, rat, HQ (Huang-Qin) group: rats, oral extract 3.54 g/kg, plasma, read-out: T1/2 (converted)): 1.58 ± 0.14 h
Tmax (male, Sprague-Dawley, rat, HQ (Huang-Qin) group: rats, oral extract 3.54 g/kg, plasma): 0.31 ± 0.03 h

O=C(/C=C/c1ccc(O[C@@H]2O[C@H](CO)[C@@H](O)[C@H](O)[C@H]2O)cc1)c1ccc(O)cc1O [Compound 27, isoliquiritin]
AUC(0-t) (male, Sprague-Dawley, rat, in vivo, po, 2.36 g/kg, GC (Gan-Cao) group: rats, oral extract 2.36 g/kg, plasma, read-out: AUClast): 0.00846 ± 0.00299 µg·h/mL
AUC(0-t) (male, Sprague-Dawley, rat, in vivo, po, 18.9 g/kg, GQD group: rats, oral GQD extract 18.9 g/kg, plasma, read-out: AUClast): 0.0119 ± 0.0024 µg·h/mL
Cmax (male, Sprague-Dawley, rat, in vivo, GC (Gan-Cao) group: rats, oral extract 2.36 g/kg, plasma, read-out: Cmax): 0.00217 ± 0.00098 µg/mL
half-life (male, Sprague-Dawley, rat, in vivo, GC (Gan-Cao) group: rats, oral extract 2.36 g/kg, plasma, read-out: T1/2 (converted)): 0.91 ± 0.08 h
Tmax (male, Sprague-Dawley, rat, in vivo, GC (Gan-Cao) group: rats, oral extract 2.36 g/kg, plasma): 0.4 ± 1.23 h
Cmax (male, Sprague-Dawley, rat, in vivo, GQD group: rats, oral GQD extract 18.9 g/kg, plasma, read-out: Cmax): 0.00259 ± 0.00243 µg/mL
half-life (male, Sprague-Dawley, rat, in vivo, GQD group: rats, oral GQD extract 18.9 g/kg, plasma, read-out: T1/2 (converted)): 1.62 ± 0.33 h
Tmax [4]: 0.49 ± 1.01 h
plasma concentrations, effect of GQD compared with Gan-Cao (rats, oral): improved
